This is an account of results in article PMC5218480 (PLoS ONE, 2017).

The test system of this experiment is MV-4-11 cells. As to the kind of experiment: Gene expression microarray analysis (Affymetrix PrimeView) and GSEA. Details: RFU PODN (11730768_x_at) / Fold change /veh PODN (11730768_x_at) / RFU LINC00158 (11744669_a_at) / Fold change /veh LINC00158 (11744669_a_at) / RFU DUSP10 (11751237_a_at) / Fold change /veh DUSP10 (11751237_a_at) / RFU ID3 (11757404_x_at) / Fold change /veh ID3 (11757404_x_at) / RFU PLEKHG5 (11737974_s_at) / Fold change /veh PLEKHG5 (11737974_s_at) / RFU LRRC4B (11730491_at) / Fold change /veh LRRC4B (11730491_at) / RFU GIMAP4 (11747438_a_at) / Fold change /veh GIMAP4 (11747438_a_at) / RFU KRT8 (11758183_x_at) / Fold change /veh KRT8 (11758183_x_at) / RFU CNN1 (11734310_a_at) / Fold change /veh CNN1 (11734310_a_at) / RFU VPS37D (11726825_at) / Fold change /veh VPS37D (11726825_at) / RFU C10orf10 (11716522_x_at) / Fold change /veh C10orf10 (11716522_x_at) / RFU KIR2DL2 /// KIR2DL4 /// KIR2DL5A /// KIR2DL5B /// KIR2DS1 /// KIR2DS2 /// KIR2DS3 /// KIR2DS4 /// KIR3DL3 /// KIR3DL3 /// KIR3DS1 (11738374_at) / Fold change /veh KIR2DL2 /// KIR2DL4 /// KIR2DL5A /// KIR2DL5B /// KIR2DS1 /// KIR2DS2 /// KIR2DS3 /// KIR2DS4 /// KIR3DL3 /// KIR3DL3 /// KIR3DS1 (11738374_at) / RFU C1QL1 (11718748_at) / Fold change /veh C1QL1 (11718748_at) / RFU TMPRSS4 (11747572_a_at) / Fold change /veh TMPRSS4 (11747572_a_at) / RFU HAMP (11756126_x_at) / Fold change /veh HAMP (11756126_x_at) / RFU RNFT2 (11725882_a_at) / Fold change /veh RNFT2 (11725882_a_at) / RFU NR4A2 (11747474_a_at) / Fold change /veh NR4A2 (11747474_a_at) / RFU ABCC12 (11746883_a_at) / Fold change /veh ABCC12 (11746883_a_at) / RFU TMEM136 (11760407_x_at) / Fold change /veh TMEM136 (11760407_x_at) / RFU CLDN22 /// WWC2 (11732394_at) / Fold change /veh CLDN22 /// WWC2 (11732394_at) / RFU HLA-DPB1 (11760878_x_at) / Fold change /veh HLA-DPB1 (11760878_x_at) / RFU SPINT1 (11716480_a_at) / Fold change /veh SPINT1 (11716480_a_at) / RFU GAP43 (11754022_s_at) / Fold change /veh GAP43 (11754022_s_at) / RFU A4GNT (11735810_at) / Fold change /veh A4GNT (11735810_at) / RFU PRB3 (11715151_x_at) / Fold change /veh PRB3 (11715151_x_at) / RFU TUBB4B (11761932_at) / Fold change /veh TUBB4B (11761932_at) / RFU CAPN14 (11732068_a_at) / Fold change /veh CAPN14 (11732068_a_at) / RFU TMCC2 (11721928_a_at) / Fold change /veh TMCC2 (11721928_a_at) / RFU IRGQ (11745062_a_at) / Fold change /veh IRGQ (11745062_a_at) / RFU FAM174B (11720279_a_at) / Fold change /veh FAM174B (11720279_a_at) / RFU TMPRSS4 (11748680_a_at) / Fold change /veh TMPRSS4 (11748680_a_at) / RFU FAM212B (11763350_a_at) / Fold change /veh FAM212B (11763350_a_at) / RFU PLEKHG5 (11743358_a_at) / Fold change /veh PLEKHG5 (11743358_a_at) / RFU ZSCAN30 (11745921_a_at) / Fold change /veh ZSCAN30 (11745921_a_at) / RFU CMKLR1 (11741424_a_at) / Fold change /veh CMKLR1 (11741424_a_at) / RFU LOC101060620 /// MAPK8IP1 (11723275_at) / Fold change /veh LOC101060620 /// MAPK8IP1 (11723275_at) / RFU SPTSSB (11747773_x_at) / Fold change /veh SPTSSB (11747773_x_at) / RFU PRSS12 (11739890_at) / Fold change /veh PRSS12 (11739890_at) / RFU BIN1 (11741810_x_at) / Fold change /veh BIN1 (11741810_x_at) / RFU WNT11 (11732464_a_at) / Fold change /veh WNT11 (11732464_a_at) / RFU C10orf10 (11716521_a_at) / Fold change /veh C10orf10 (11716521_a_at) / RFU C5orf56 (11738089_at) / Fold change /veh C5orf56 (11738089_at) / RFU CYB561 (11721691_x_at) / Fold change /veh CYB561 (11721691_x_at) / RFU ANKRD19P (11752326_a_at) / Fold change /veh ANKRD19P (11752326_a_at) / RFU OR2T12 /// OR2T33 /// OR2T8 (11738714_s_at) / Fold change /veh OR2T12 /// OR2T33 /// OR2T8 (11738714_s_at) / RFU VCAN (11748164_a_at) / Fold change /veh VCAN (11748164_a_at) / RFU JSRP1 (11732532_at) / Fold change /veh JSRP1 (11732532_at) / RFU KRTAP10-11 (11738290_x_at) / Fold change /veh KRTAP10-11 (11738290_x_at) / RFU MYO3A (11730013_a_at) / Fold change /veh MYO3A (11730013_a_at) / RFU EBF3 (11725865_a_at) / Fold change /veh EBF3 (11725865_a_at) / RFU CAMK2N1 (11719241_x_at) / Fold change /veh CAMK2N1 (11719241_x_at) / RFU C5orf56 (11738088_a_at) / Fold change /veh C5orf56 (11738088_a_at) / RFU OLFML3 (11715873_a_at) / Fold change /veh OLFML3 (11715873_a_at) / RFU LOC100653217 /// NTM (11731650_a_at) / Fold change /veh LOC100653217 /// NTM (11731650_a_at) / RFU MAPK11 (11762145_a_at) / Fold change /veh MAPK11 (11762145_a_at) / RFU FIZ1 (11724087_x_at) / Fold change /veh FIZ1 (11724087_x_at) / RFU OASL (11726364_x_at) / Fold change /veh OASL (11726364_x_at) / RFU SOX15 (11748057_x_at) / Fold change /veh SOX15 (11748057_x_at) / RFU CD79A (11719716_a_at) / Fold change /veh CD79A (11719716_a_at) / RFU HIST1H1D (11736915_at) / Fold change /veh HIST1H1D (11736915_at) / RFU CASKIN2 (11723855_a_at) / Fold change /veh CASKIN2 (11723855_a_at) / RFU LOC730098 (11760151_x_at) / Fold change /veh LOC730098 (11760151_x_at) / RFU OR4N2 (11742367_at) / Fold change /veh OR4N2 (11742367_at) / RFU PRRT2 (11749266_a_at) / Fold change /veh PRRT2 (11749266_a_at) / RFU SNX32 (11753110_a_at) / Fold change /veh SNX32 (11753110_a_at) / RFU CDHR5 (11726645_a_at) / Fold change /veh CDHR5 (11726645_a_at) / RFU RCAN1 (11760418_a_at) / Fold change /veh RCAN1 (11760418_a_at) / RFU FAM167A (11723789_a_at) / Fold change /veh FAM167A (11723789_a_at) / RFU FAM26E (11764081_at) / Fold change /veh FAM26E (11764081_at) / RFU ISYNA1 (11749810_s_at) / Fold change /veh ISYNA1 (11749810_s_at) / RFU ACY1 (11761880_at) / Fold change /veh ACY1 (11761880_at) / RFU 11764098_at / Fold change /veh 11764098_at / RFU SAMD14 (11745864_x_at) / Fold change /veh SAMD14 (11745864_x_at) / RFU NPB (11741838_a_at) / Fold change /veh NPB (11741838_a_at) / RFU TMPRSS6 (11731388_a_at) / Fold change /veh TMPRSS6 (11731388_a_at) / RFU KRTAP10-2 (11738614_at) / Fold change /veh KRTAP10-2 (11738614_at) / RFU ARHGAP8 /// PRR5-ARHGAP8 (11727945_x_at) / Fold change /veh ARHGAP8 /// PRR5-ARHGAP8 (11727945_x_at) / RFU KRTAP5-7 /// NADSYN1 (11734609_at) / Fold change /veh KRTAP5-7 /// NADSYN1 (11734609_at) / RFU RASL12 (11751679_a_at) / Fold change /veh RASL12 (11751679_a_at) / RFU CDKN2B (11736163_a_at) / Fold change /veh CDKN2B (11736163_a_at) / RFU PRF1 (11729649_at) / Fold change /veh PRF1 (11729649_at) / RFU, ZNF638 /// ZNF638-IT1 / Fold change vs veh, ZNF638 /// ZNF638-IT1 / RFU, PANK3 / Fold change vs veh, PANK3 / RFU, SH3YL1 / Fold change vs veh, SH3YL1 / RFU, ZEB2 / Fold change vs veh, ZEB2 / RFU, NRIP1 / Fold change vs veh, NRIP1 / RFU, PTTG1IP / Fold change vs veh, PTTG1IP / RFU, CAPN2 / Fold change vs veh, CAPN2 / RFU, MED14 / Fold change vs veh, MED14 / RFU, SNORA58 / Fold change vs veh, SNORA58 / RFU, C1orf63 / Fold change vs veh, C1orf63 / RFU, LRRFIP1 / Fold change vs veh, LRRFIP1 / RFU, NDUFAF7 / Fold change vs veh, NDUFAF7 / RFU, SLC12A2 / Fold change vs veh, SLC12A2 / RFU, IBTK / Fold change vs veh, IBTK / RFU, ESF1 / Fold change vs veh, ESF1 / Fold change vs veh, TMEM50B / RFU, TAOK1 / Fold change vs veh, TAOK1 / RFU, ACBD3 / Fold change vs veh, ACBD3 / RFU, TMA16 / Fold change vs veh, TMA16 / RFU, RWDD3 / Fold change vs veh, RWDD3 / RFU, BCAT1 / Fold change vs veh, BCAT1 / RFU, EDEM3 / Fold change vs veh, EDEM3 / RFU, TMEM33 / Fold change vs veh, TMEM33 / RFU, WDR75 / Fold change vs veh, WDR75 / RFU, AHCTF1 / Fold change vs veh, AHCTF1 / RFU, TFRC / Fold change vs veh, TFRC / RFU, ZDHHC17 / Fold change vs veh, ZDHHC17 / RFU, NOM1 / Fold change vs veh, NOM1 / RFU, ARL8B / Fold change vs veh, ARL8B / RFU, ZBTB11 / Fold change vs veh, ZBTB11 / RFU, TAMM41 / Fold change vs veh, TAMM41 / RFU, KIAA1704 /// LOC100996395 / Fold change vs veh, KIAA1704 /// LOC100996395 / RFU, ING1 / Fold change vs veh, ING1 / RFU, TRMT61B / Fold change vs veh, TRMT61B / RFU, FUBP3 / Fold change vs veh, FUBP3 / RFU, TP53 / Fold change vs veh, TP53 / RFU, TNKS2 / Fold change vs veh, TNKS2 / RFU, ZFP14 / Fold change vs veh, ZFP14 / RFU, ACTR2 / Fold change vs veh, ACTR2 / RFU, PPP3R1 / Fold change vs veh, PPP3R1 / RFU, PIK3R1 / Fold change vs veh, PIK3R1 / RFU, HNRNPA1 / Fold change vs veh, HNRNPA1 / RFU, RNF170 / Fold change vs veh, RNF170 / RFU, ZNF28 / Fold change vs veh, ZNF28 / RFU, RNGTT / Fold change vs veh, RNGTT / RFU, OGT / Fold change vs veh, OGT / RFU, BRD1 / Fold change vs veh, BRD1 / RFU, MARS / Fold change vs veh, MARS / RFU, ZNF655 / Fold change vs veh, ZNF655 / RFU, FAHD1 / Fold change vs veh, FAHD1 / RFU, BDP1 / Fold change vs veh, BDP1 / RFU, LRRCC1 / Fold change vs veh, LRRCC1 / RFU, ARID1A / Fold change vs veh, ARID1A / RFU, ZNF146 / Fold change vs veh, ZNF146 / RFU, ZNF330 / Fold change vs veh, ZNF330 / RFU, GPN3 / Fold change vs veh, GPN3 / RFU, C9orf123 / Fold change vs veh, C9orf123 / RFU, N4BP2L2 / Fold change vs veh, N4BP2L2 / RFU, ARFIP1 / Fold change vs veh, ARFIP1 / RFU, FAM179B / Fold change vs veh, FAM179B / RFU, BCL10 / Fold change vs veh, BCL10 / RFU, UHRF1BP1L / Fold change vs veh, UHRF1BP1L / RFU, BET1 / Fold change vs veh, BET1 / RFU, CNOT2 / Fold change vs veh, CNOT2 / RFU, ZNF268 / Fold change vs veh, ZNF268 / Fold change vs veh, ZNF507 / RFU, DGCR2 / Fold change vs veh, DGCR2 / RFU, WDSUB1 / Fold change vs veh, WDSUB1 / Fold change vs veh, HSP90B1 /// MIR3652 / RFU, ADSS / Fold change vs veh, ADSS / RFU, GK / Fold change vs veh, GK / RFU, ZNF148 / Fold change vs veh, ZNF148 / RFU, TAF9 / Fold change vs veh, TAF9 / RFU, SLC1A5 / Fold change vs veh, SLC1A5 / RFU, SLMO2 / Fold change vs veh, SLMO2 / RFU, ABCC4 / Fold change vs veh, ABCC4 / RFU, LOC101060439 /// RAP1B / Fold change vs veh, LOC101060439 /// RAP1B / RFU, RFX7 / Fold change vs veh, RFX7 / RFU, GTPBP10 / Fold change vs veh, GTPBP10 / RFU, CNEP1R1 / Fold change vs veh, CNEP1R1 / RFU, BIVM-ERCC5 /// ERCC5 / Fold change vs veh, BIVM-ERCC5 /// ERCC5 / RFU, ILF3 / Fold change vs veh, ILF3 / RFU 11762660_at / Fold change /veh 11762660_at / RFU VCAN (11757783_s_at) / Fold change /veh VCAN (11757783_s_at) / RFU DDX43 (11728927_at) / Fold change /veh DDX43 (11728927_at) / RFU KRT8 (11758188_x_at) / Fold change /veh KRT8 (11758188_x_at) / RFU NKD1 (11759106_at) / Fold change /veh NKD1 (11759106_at) / RFU SRD5A1 (11742802_a_at) / Fold change /veh SRD5A1 (11742802_a_at) / RFU TPSAB1 /// TPSB2 (11721975_s_at) / Fold change /veh TPSAB1 /// TPSB2 (11721975_s_at) / RFU GSTM3 (11746129_a_at) / Fold change /veh GSTM3 (11746129_a_at) / RFU IL23R (11737362_x_at) / Fold change /veh IL23R (11737362_x_at) / RFU TMEM51 (11727254_a_at) / Fold change /veh TMEM51 (11727254_a_at) / RFU PIWIL2 (11732686_x_at) / Fold change /veh PIWIL2 (11732686_x_at) / RFU ORM1 (11744905_x_at) / Fold change /veh ORM1 (11744905_x_at) / RFU CCDC152 (11743942_at) / Fold change /veh CCDC152 (11743942_at) / RFU ECM1 (11717891_a_at) / Fold change /veh ECM1 (11717891_a_at) / RFU IL23R (11748794_a_at) / Fold change /veh IL23R (11748794_a_at) / RFU TNFAIP8L3 (11732012_x_at) / Fold change /veh TNFAIP8L3 (11732012_x_at) / RFU MBOAT4 (11741988_at) / Fold change /veh MBOAT4 (11741988_at) / RFU 11764193_at / Fold change /veh 11764193_at / RFU TMEM53 (11763286_at) / Fold change /veh TMEM53 (11763286_at) / RFU MAGEB2 (11727129_at) / Fold change /veh MAGEB2 (11727129_at) / RFU TMEM200A (11744735_a_at) / Fold change /veh TMEM200A (11744735_a_at) / RFU CCDC152 (11751479_a_at) / Fold change /veh CCDC152 (11751479_a_at) / RFU FAM211A (11726209_a_at) / Fold change /veh FAM211A (11726209_a_at) / RFU RGS16 (11746705_a_at) / Fold change /veh RGS16 (11746705_a_at) / RFU VCAN (11755009_s_at) / Fold change /veh VCAN (11755009_s_at) / RFU RHOB (11743442_s_at) / Fold change /veh RHOB (11743442_s_at) / RFU RGS16 (11720943_a_at) / Fold change /veh RGS16 (11720943_a_at) / RFU RGS16 (11720944_at) / Fold change /veh RGS16 (11720944_at) / RFU, VPS4B / Fold change vs veh, VPS4B / RFU, CREB1 / Fold change vs veh, CREB1 / RFU, DNAJC13 / Fold change vs veh, DNAJC13 / RFU, GNAQ / Fold change vs veh, GNAQ / RFU, CDK5R1 / Fold change vs veh, CDK5R1 / RFU, ZRANB3 / Fold change vs veh, ZRANB3 / RFU, CUL4A / Fold change vs veh, CUL4A / RFU, CCNY / Fold change vs veh, CCNY / RFU, UFL1 / Fold change vs veh, UFL1 / RFU, COG3 / Fold change vs veh, COG3 / RFU, DIAPH2 / Fold change vs veh, DIAPH2 / RFU, SKA2 / Fold change vs veh, SKA2 / RFU, AFF3 / Fold change vs veh, AFF3 / RFU, LMF1 / Fold change vs veh, LMF1 / RFU, IPO11 / Fold change vs veh, IPO11 / RFU, DFFB / Fold change vs veh, DFFB / RFU, FOXP1 / Fold change vs veh, FOXP1 / RFU, CARD8 / Fold change vs veh, CARD8 / RFU, STRN3 / Fold change vs veh, STRN3 / RFU, ADK / Fold change vs veh, ADK / RFU, RASSF2 / Fold change vs veh, RASSF2 / RFU, WIPF1 / Fold change vs veh, WIPF1 / RFU, LARP1B / Fold change vs veh, LARP1B / RFU, RASA1 / Fold change vs veh, RASA1 / RFU, RB1 / Fold change vs veh, RB1 / RFU, PPFIA1 / Fold change vs veh, PPFIA1 / RFU, MAT2A / Fold change vs veh, MAT2A / RFU, CCT5 / Fold change vs veh, CCT5 / RFU, WDR92 / Fold change vs veh, WDR92 / RFU, CUX1 / Fold change vs veh, CUX1 / RFU, TTC7A / Fold change vs veh, TTC7A / RFU, TMEM135 / Fold change vs veh, TMEM135 / RFU, DEPTOR / Fold change vs veh, DEPTOR / RFU, CPM / Fold change vs veh, CPM / RFU, DNAJB6 / Fold change vs veh, DNAJB6 / RFU, CACNA2D3 / Fold change vs veh, CACNA2D3 / RFU, DTX4 / Fold change vs veh, DTX4 / RFU, TFCP2 / Fold change vs veh, TFCP2 / RFU, GMCL1 /// GMCL1P1 / Fold change vs veh, GMCL1 /// GMCL1P1 / RFU, AEBP2 / Fold change vs veh, AEBP2 / RFU, SNHG1 /// SNORD22 /// SNORD25 /// SNORD26 /// SNORD27 /// SNORD28 /// SNORD29 /// SNORD31 / Fold change vs veh, SNHG1 /// SNORD22 /// SNORD25 /// SNORD26 /// SNORD27 /// SNORD28 /// SNORD29 /// SNORD31 / Fold change (Aza/veh), C12orf56 (ProbeSet 11735607_a_at) / Fold change (ACY-1035/veh), C12orf56 (ProbeSet 11735607_a_at) / Fold change (Aza/veh), FGFR1OP (ProbeSet 11751329_s_at) / Fold change (ACY-1035/veh), FGFR1OP (ProbeSet 11751329_s_at) / Fold change (Aza/veh), VPS36 (ProbeSet 11739960_a_at) / Fold change (ACY-1035/veh), VPS36 (ProbeSet 11739960_a_at) / RFU SYPL1 (11715823_x_at) / Fold change /veh SYPL1 (11715823_x_at) / RFU IGFBP7 (11715501_s_at) / Fold change /veh IGFBP7 (11715501_s_at) / RFU REEP3 (11722064_at) / Fold change /veh REEP3 (11722064_at) / RFU IGLL1 (11728026_x_at) / Fold change /veh IGLL1 (11728026_x_at): dose or concentration left out as unconfirmed. In kind it is cell-based, human. The conditions noted are these: ProbeSet 11749645_x_at; LIST B.

Take `Nc1ncn([C@@H]2O[C@H](CO)[C@@H](O)[C@H]2O)c(=O)n1` [azacitidine]: the “RFU, ZNF268” value was 156.52 RFU.
